Publication PMC4884932, “Selective brain penetrable Nurr1 transactivator for treating Parkinson's disease” (Oncotarget, 2016)

Molecular target: LXRα (Homo sapiens, UniProt Q13133)
Experiment: Receptor transactivation assay, LXRα (CV-1 cells)
Assay type: cell-based
Settings: at physiological concentrations
Source text: For PPARγ: CV-1 cells were transfected with 3x(rAOX/DR1)-tk-Luc reporter gene and an expression vector for PPARγ; for FXR: CV-1 cells were transfected with 3x(IBABP/IR1)-tk-Luc reporter gene and vectors for FXR and RXRα; for LXR: CV-1 cells were transfected with 3x(PLTP/LXRE)-tk-Luc reporter gene with vectors for LXRα or LXRβ. […] Luciferase data were normalized to co-transfected β-gal activity. Luciferase activity is expressed as percent of maximal activity obtained using specific agonists 9-cis-retinoic acid (RXR), retinoic acid (RAR), rosiglitazone (PPARγ), GW4064 (FXR), T0901317 (LXR).

Chain of LXRα (P19793 whole entry): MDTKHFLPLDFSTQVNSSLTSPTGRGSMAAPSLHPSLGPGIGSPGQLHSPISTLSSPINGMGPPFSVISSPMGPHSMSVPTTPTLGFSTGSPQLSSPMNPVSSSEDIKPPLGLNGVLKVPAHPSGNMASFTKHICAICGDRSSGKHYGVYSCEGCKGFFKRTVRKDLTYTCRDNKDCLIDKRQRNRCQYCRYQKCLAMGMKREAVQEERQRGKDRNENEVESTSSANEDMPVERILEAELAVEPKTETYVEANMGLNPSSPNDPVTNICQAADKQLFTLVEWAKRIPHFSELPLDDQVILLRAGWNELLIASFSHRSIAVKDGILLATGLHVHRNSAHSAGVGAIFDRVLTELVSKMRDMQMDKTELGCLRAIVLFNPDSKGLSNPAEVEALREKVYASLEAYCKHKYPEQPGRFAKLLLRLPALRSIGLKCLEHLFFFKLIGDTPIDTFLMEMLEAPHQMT
Chain of LXRα (Q13133 whole entry): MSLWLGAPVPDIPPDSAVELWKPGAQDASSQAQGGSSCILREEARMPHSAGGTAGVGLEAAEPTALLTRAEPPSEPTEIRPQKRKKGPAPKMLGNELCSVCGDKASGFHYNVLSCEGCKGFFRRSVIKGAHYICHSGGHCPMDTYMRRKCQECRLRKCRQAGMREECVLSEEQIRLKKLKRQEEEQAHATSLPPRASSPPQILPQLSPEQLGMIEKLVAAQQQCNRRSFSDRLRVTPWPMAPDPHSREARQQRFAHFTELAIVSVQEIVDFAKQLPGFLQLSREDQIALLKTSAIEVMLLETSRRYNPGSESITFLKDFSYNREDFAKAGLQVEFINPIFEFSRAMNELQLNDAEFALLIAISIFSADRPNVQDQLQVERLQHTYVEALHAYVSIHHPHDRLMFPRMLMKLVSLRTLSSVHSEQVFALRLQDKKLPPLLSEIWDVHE

CC(/C=C/[C@@H]1C[C@]1(C)c1ccc2c(c1)C(C)(C)CCC2(C)C)=C\C(=O)O [IRX4204]
activation of RXR heterodimer of LXRα: does not activate
